This is an account of results in US12030881B2, “Ion channel modulators” (PRAXIS PRECISION MEDICINES, INC., priority 2019, dated 2024).

T1 sequence (Q9UQD0 whole entry): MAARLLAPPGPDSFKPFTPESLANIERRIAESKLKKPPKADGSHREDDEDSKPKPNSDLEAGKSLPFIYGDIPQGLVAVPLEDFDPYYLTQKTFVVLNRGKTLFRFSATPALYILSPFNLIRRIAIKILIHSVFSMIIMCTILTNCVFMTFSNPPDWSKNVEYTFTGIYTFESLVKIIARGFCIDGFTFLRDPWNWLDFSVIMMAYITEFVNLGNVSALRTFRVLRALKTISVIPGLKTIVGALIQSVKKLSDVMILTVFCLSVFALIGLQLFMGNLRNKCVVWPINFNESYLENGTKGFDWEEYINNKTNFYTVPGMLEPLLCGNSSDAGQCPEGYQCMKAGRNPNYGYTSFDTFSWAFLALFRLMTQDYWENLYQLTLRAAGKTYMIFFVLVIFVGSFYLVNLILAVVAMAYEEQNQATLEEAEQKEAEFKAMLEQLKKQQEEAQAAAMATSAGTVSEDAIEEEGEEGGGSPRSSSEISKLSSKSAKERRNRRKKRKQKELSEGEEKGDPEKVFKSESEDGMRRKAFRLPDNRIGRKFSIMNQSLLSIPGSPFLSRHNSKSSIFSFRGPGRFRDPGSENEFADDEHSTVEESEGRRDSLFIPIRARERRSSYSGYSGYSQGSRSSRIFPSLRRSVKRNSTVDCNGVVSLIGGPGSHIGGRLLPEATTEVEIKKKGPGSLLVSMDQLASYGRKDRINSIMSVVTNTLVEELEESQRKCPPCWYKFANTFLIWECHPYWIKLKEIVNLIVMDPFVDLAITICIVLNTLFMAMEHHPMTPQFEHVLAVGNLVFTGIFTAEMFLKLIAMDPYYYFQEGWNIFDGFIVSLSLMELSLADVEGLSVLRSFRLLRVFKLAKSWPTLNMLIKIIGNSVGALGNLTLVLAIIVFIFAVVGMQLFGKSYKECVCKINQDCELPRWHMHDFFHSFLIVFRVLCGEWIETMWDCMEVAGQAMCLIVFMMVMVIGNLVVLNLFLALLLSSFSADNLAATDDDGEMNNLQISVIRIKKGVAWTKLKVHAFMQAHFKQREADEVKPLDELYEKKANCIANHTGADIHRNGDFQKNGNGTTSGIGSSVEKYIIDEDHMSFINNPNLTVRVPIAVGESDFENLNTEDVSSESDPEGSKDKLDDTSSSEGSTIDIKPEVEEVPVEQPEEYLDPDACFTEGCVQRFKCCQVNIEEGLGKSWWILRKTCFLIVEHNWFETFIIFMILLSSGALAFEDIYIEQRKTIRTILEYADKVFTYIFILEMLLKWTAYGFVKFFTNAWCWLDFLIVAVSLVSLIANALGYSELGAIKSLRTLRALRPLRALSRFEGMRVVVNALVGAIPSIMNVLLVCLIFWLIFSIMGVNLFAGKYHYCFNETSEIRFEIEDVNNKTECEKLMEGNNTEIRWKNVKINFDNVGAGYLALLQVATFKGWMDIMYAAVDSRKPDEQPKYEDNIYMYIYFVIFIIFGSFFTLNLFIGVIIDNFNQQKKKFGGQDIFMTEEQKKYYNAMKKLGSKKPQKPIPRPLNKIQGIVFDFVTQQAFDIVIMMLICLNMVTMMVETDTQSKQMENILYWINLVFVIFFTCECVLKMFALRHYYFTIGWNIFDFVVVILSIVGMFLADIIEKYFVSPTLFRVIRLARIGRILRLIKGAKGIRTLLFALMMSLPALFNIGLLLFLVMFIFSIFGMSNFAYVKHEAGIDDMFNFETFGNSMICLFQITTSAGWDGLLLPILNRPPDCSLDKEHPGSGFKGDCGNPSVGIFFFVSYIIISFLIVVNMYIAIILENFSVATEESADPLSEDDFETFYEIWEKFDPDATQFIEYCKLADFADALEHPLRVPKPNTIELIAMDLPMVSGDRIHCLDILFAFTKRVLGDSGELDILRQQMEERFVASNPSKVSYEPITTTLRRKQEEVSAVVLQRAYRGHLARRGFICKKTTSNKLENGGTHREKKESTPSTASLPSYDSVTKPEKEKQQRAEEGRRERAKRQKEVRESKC

The assay concerns the target T1, INaL v1.6 (Nav late current, recombinant sodium channels) (Homo sapiens, UniProt Q9UQD0).
T1 construct: expressed in transfected cells; host or cells: HEK-293
Briefly: PatchXpress electrophysiology, ATX-II evoked Nav late current (INaL) in HEK-293 cells expressing recombinant sodium channels. Particulars: HEK293, compound at 1 μM, late current evoked by ATX-II 300 nM, steady state block. The assay is classed as cell-based. On the procedure: Functional characterization of exemplary compounds to modulate voltage gated sodium currents was accomplished using the PatchXpress™ high throughput electrophysiology platforms (Molecular Devices, Sunnyvale, CA). HEK-293 cells expressing recombinant sodium channels were grown in DMEM/high-glucose Dulbecco's modified, 10% FBS, 2 mM sodium pyruvate, and G418. Nav channel expressing cells were grown to 50%-80% confluency and harvested by trypsinization. Trypsinized cells were washed and resuspended in extracellular buffer at a concentration of 1×10^6 cells/ml. The onboard liquid handling facility of the PatchXpress was used for dispensing cells and application of test compounds. Nav late currents were evoked by the application of ATX-II, 300 nM. Currents were evoked by depolarizing pulses to 0 mV for 200 ms from a non-inactivating holding potential (e.g., −120 mV to −150 mV) at a frequency of 0.1 Hz. Late current amplitude and stability were determined by analyzing the mean current amplitude over the 175-195 msec region of the 200 msec test pulse. Following steady state block with exemplary compounds (e.g., as described herein) at 1 μM, a Na free solution containing an impermeant cation (e.g., Choline or NDMG) was added for determination of the 0 current level. Late current amplitudes for each test condition were determined from the mean of the 175-195 msec region of the 200 msec test pulse. Percent inhibition of steady state currents was calculated as (compound-baseline)/(control-baseline)*100, where control represents INaL recorded in the absence of compound.
As to `C[C@H](Oc1ncc(-c2ccc3nnc(C(F)F)n3c2)cc1F)C(F)(F)F` [Example 4, 3-(difluoromethyl)-6-[5-fluoro-6-[(1S)-2,2,2-trifluoro-1-methyl-ethoxy]-3-pyridyl]-[1,2,4]triazolo[4,3-a]pyridine], the inhibition at 1 µM was more than 75%.
Under `C[C@@H](Oc1ncc(-c2ccc3nnc(C(F)F)n3c2)cc1F)C(F)(F)F` [Example 3, 3-(difluoromethyl)-6-[5-fluoro-6-[(1R)-2,2,2-trifluoro-1-methyl-ethoxy]-3-pyridyl]-[1,2,4]triazolo[4,3-a]pyridine] stands more than 75%.
As to `C[C@@H](Oc1ncc(-c2ccc3nnc(C(F)(F)F)n3c2)cc1F)C(F)(F)F` [Example 2, 6-[5-fluoro-6-[(1R)-2,2,2-trifluoro-1-methyl-ethoxy]-3-pyridyl]-3-(trifluoromethyl)-[1,2,4]triazolo[4,3-a]pyridine], the inhibition at 1 µM is more than 75%.
`Fc1cc(-c2ccc3nnc(C(F)(F)F)n3c2)cnc1OCC(F)(F)F` [Example 10, 6-[5-fluoro-6-(2,2,2-trifluoroethoxy)-3-pyridyl]-3-(trifluoromethyl)-[1,2,4]triazolo[4,3-a]pyridine]: the inhibition at 1 µM is more than 75%.
Under `CC(C)(Oc1ncc(-c2ccc3nnc(C(F)(F)F)n3c2)cc1F)C(F)(F)F` [Example 6, 6-[5-fluoro-6-(2,2,2-trifluoro-1,1-dimethyl-ethoxy)-3-pyridyl]-3-(trifluoromethyl)-[1,2,4]triazolo[4,3-a]pyridine] stands more than 75%; under `Fc1cc(-c2ccc3nnc(C(F)(F)F)n3c2)cnc1OC1(C(F)(F)F)CCC1` [Example 7, 6-[5-fluoro-6-[1-(trifluoromethyl)cyclobutoxy]-3-pyridyl]-3-(trifluoromethyl)-[1,2,4]triazolo[4,3-a]pyridine], more than 75%; under `CC(C)(Oc1ncc(-c2ccc3nnc(C(F)F)n3c2)cc1F)C(F)(F)F` [Example 5, 3-(difluoromethyl)-6-[5-fluoro-6-(2,2,2-trifluoro-1,1-dimethyl-ethoxy)-3-pyridyl]-[1,2,4]triazolo[4,3-a]pyridine], more than 75%.
Under `Fc1cc(-c2ccc3nnc(C(F)F)n3c2)cnc1OCC(F)(F)F` [Example 9, 3-(difluoromethyl)-6-[5-fluoro-6-(2,2,2-trifluoroethoxy)-3-pyridyl]-[1,2,4]triazolo[4,3-a]pyridine] stands 50 to 75%.
Under `C[C@H](Oc1ncc(-c2ccc3nnc(C(F)(F)F)n3c2)cc1F)C(F)(F)F` [Example 1, 6-[5-fluoro-6-[(1S)-2,2,2-trifluoro-1-methyl-ethoxy]-3-pyridyl]-3-(trifluoromethyl)-[1,2,4]triazolo[4,3-a]pyridine] stands more than 75%; under `Fc1cc(-c2ccc3nnc(C(F)(F)F)n3c2)cnc1OC1(C(F)(F)F)COC1` [Example 8, 6-[5-fluoro-6-[3-(trifluoromethyl)oxetan-3-yl]oxy-3-pyridyl]-3-(trifluoromethyl)-[1,2,4]triazolo[4,3-a]pyridine], 50 to 75%.
